Reference: publication PMC4447534 (ChemMedChem, 2015)
Several values for one entry are separate records, joined by “and”; a condition that tells them apart may be missing. Identical values can stand only once.

Tested on: Vero cells
Experiment: Cytotoxicity for Vero cells
Type: cell-based
Conditions: one experiment in triplicate, means ± S.D.

Compound | Cytotoxicity ED50 [µM]
Cc1ccc(S(=O)(=O)OCCOc2cccnc2)cc1 [Compound 71, 3-Pyridyloxyethyl 4-Toluenesulfonate] | > 200
N#CSCCOc1cccc(Oc2ccccc2Cl)c1 [Compound 46, 3-(2-Chlorophenoxy)phenoxyethyl Thiocyanate] | > 50.0
N#CSCCOc1ccc(Oc2cccc(C(F)(F)F)c2)cc1 [Compound 15, 4-[(3-Trifluoro)phenoxy]phenoxyethyl Thiocyanate] | > 50.0
[N-]=[N+]=NCCOc1ccc(Oc2ccccc2)cc1 [Compound 64, 4-Phenoxyphenoxyethyl Azide] | > 200.0
COc1cccc(Oc2cccc(OCCSC#N)c2)c1 [Compound 50, 3-(3-Methoxyphenoxy)-phenoxyethyl Thiocyanate] | 96.2 ± 37.5
N#CSCCOc1cccc(Oc2ccc(Cl)cc2)c1 [Compound 48, 3-(4-Chlorophenoxy)phenoxyethyl Thiocyanate] | 98.4 ± 5.8
N#CSCCOc1ccc(Oc2ccc(C(F)(F)F)cc2)cc1 [Compound 16, 4-[(4-Trifluoro)phenoxy]phenoxyethyl Thiocyanate] | > 50.0
N#CSCCOc1cccc(Oc2cccc(Cl)c2)c1 [Compound 47, 3-(3-Chlorophenoxy)phenoxyethyl Thiocyanate] | > 200.0
N#CSCCOc1cccc(Oc2cccnc2)c1 [Compound 61, 3-(3-Pyridyn-3-yloxy)phenoxyethyl Thiocyanate] | 124.0 ± 12.0
COc1ccccc1Oc1cccc(OCCSC#N)c1 [Compound 49, 3-(2-Methoxyphenoxy)phenoxyethyl Thiocyanate] | 115.7 ± 39.8
N#CSCCOc1ccc(Oc2ccccn2)cc1 [Compound 29, 4-(Pyridin-2-yloxy)phenoxyethyl Thiocyante] | > 200.0
N#CSCCOc1ccc(Br)cc1Br [Compound 68, 2,4-Dibromophenoxyethyl Thiocyanate] | > 50.0
N#CSCCOc1ccc(Oc2ccc3ccccc3c2)cc1 [Compound 20, β-Naphtyloxyphenoxyethyl Thiocyanate] | 104.7 ± 7.8
N#CSCCOc1cccc(Oc2ccccn2)c1 [Compound 60, 3-(2-Pyridyloxy)phenoxyethyl Thiocyanate] | > 200.0
N#CSCCOc1cccc(Oc2ccncc2)c1 [Compound 62, 3-(4-Pyridyloxy)phenoxyethyl Thiocyanate] | > 200.0
N#CSCCOc1ccc(Oc2ccccc2)cc1 [WC-9, 4-phenoxyphenoxyethyl thiocyanate, reference compound] | 82.6 ± 7.3

Tested on: T. cruzi (amastigotes)
Experiment: microbe, parasite or virus in culture
Conditions: Trypanosoma cruzi, read-out: T. cruzi ED50

Compound | IC50 [µM]
Cc1ccc(S(=O)(=O)OCCOc2cccnc2)cc1 [Compound 71, 3-Pyridyloxyethyl 4-Toluenesulfonate] | > 10
N#CSCCOc1cccc(Oc2ccccc2Cl)c1 [Compound 46, 3-(2-Chlorophenoxy)phenoxyethyl Thiocyanate] | 11.9 ± 0.38
[N-]=[N+]=NCCOc1ccc(Oc2ccccc2)cc1 [Compound 64, 4-Phenoxyphenoxyethyl Azide] | > 10
COc1cccc(Oc2cccc(OCCSC#N)c2)c1 [Compound 50, 3-(3-Methoxyphenoxy)-phenoxyethyl Thiocyanate] | 8.75 ± 0.33
N#CSCCOc1cccc(Oc2ccc(Cl)cc2)c1 [Compound 48, 3-(4-Chlorophenoxy)phenoxyethyl Thiocyanate] | 6.27 ± 0.75
N#CSCCOc1cccc(Oc2cccc(Cl)c2)c1 [Compound 47, 3-(3-Chlorophenoxy)phenoxyethyl Thiocyanate] | > 20
COc1ccccc1Oc1cccc(OCCSC#N)c1 [Compound 49, 3-(2-Methoxyphenoxy)phenoxyethyl Thiocyanate] | 11.7 ± 2.52
O=C(Cn1ccnc1[N+](=O)[O-])NCc1ccccc1 [Benznidazole, reference compound] | 1.92 ± 0.55
N#CSCCOc1ccc(Br)cc1Br [Compound 68, 2,4-Dibromophenoxyethyl Thiocyanate] | > 20
N#CSCCOc1cccc(Oc2ccccn2)c1 [Compound 60, 3-(2-Pyridyloxy)phenoxyethyl Thiocyanate] | > 10
N#CSCCOc1cccc(Oc2ccncc2)c1 [Compound 62, 3-(4-Pyridyloxy)phenoxyethyl Thiocyanate] | > 10
N#CSCCOc1ccc(Oc2ccccc2)cc1 [WC-9, 4-phenoxyphenoxyethyl thiocyanate, reference compound] | 5 ± 1.1

Tested on: amastigotes of Trypanosoma cruzi
Experiment: not given
Conditions: cited from earlier work

Compound | ED50 against amastigotes of Trypanosoma cruzi
N#CSCCOc1ccc(Oc2ccccc2)cc1 [WC-9, 4-phenoxyphenoxyethyl thiocyanate, reference compound] | low nanomolar range

Tested on: T. gondii (tachyzoites)
Experiment: not given
Conditions: not given

Compound | SI (T. gondii) | T. gondii ED50
N#CSCCOc1ccc(Oc2cccc(C(F)(F)F)c2)cc1 [Compound 15, 4-[(3-Trifluoro)phenoxy]phenoxyethyl Thiocyanate] | > 31.1 | 1.6 µM and 1.66 ± 0.35 µM
N#CSCCOc1ccc(Oc2ccc(C(F)(F)F)cc2)cc1 [Compound 16, 4-[(4-Trifluoro)phenoxy]phenoxyethyl Thiocyanate] | > 26.7 | 1.9 µM and 1.86 ± 0.38 µM
N#CSCCOc1cccc(Oc2cccnc2)c1 [Compound 61, 3-(3-Pyridyn-3-yloxy)phenoxyethyl Thiocyanate] | 33.5 | –
N#CSCCOc1ccc(Oc2ccc3ccccc3c2)cc1 [Compound 20, β-Naphtyloxyphenoxyethyl Thiocyanate] | – | 2.3 µM and 2.25 ± 0.84 µM
α-Naphtyloxyphenylethyl Thiocyanate [Compound 24] | – | 2.9 µM and 2.87 ± 0.19 µM

Same assay, conditions: selectivity index, Vero cells versus T. gondii

Compound | SI (T. gondii)
N#CSCCOc1cccc(Oc2ccccc2Cl)c1 [Compound 46, 3-(2-Chlorophenoxy)phenoxyethyl Thiocyanate] | 23.4
COc1cccc(Oc2cccc(OCCSC#N)c2)c1 [Compound 50, 3-(3-Methoxyphenoxy)-phenoxyethyl Thiocyanate] | 23.9
COc1ccccc1Oc1cccc(OCCSC#N)c1 [Compound 49, 3-(2-Methoxyphenoxy)phenoxyethyl Thiocyanate] | 41.5
N#CSCCOc1ccc(Oc2ccc3ccccc3c2)cc1 [Compound 20, β-Naphtyloxyphenoxyethyl Thiocyanate] | 46.5
α-Naphtyloxyphenylethyl Thiocyanate [Compound 24] | 24.4

Same assay, conditions: tachyzoites; one experiment in triplicate, means ± S.D.

Compound | T. gondii ED50
N#CSCCOc1cccnc1 [Compound 72, 3-Pyridyloxyethyl Thiocyanate] | devoid of antiparasitic activity

Tested on: T. cruzi (amastigotes)
Experiment: not given
Conditions: intracellular amastigotes; one experiment in triplicate, means ± S.D.

Compound | T. cruzi ED50
N#CSCCOc1ccc(Oc2cccc(C(F)(F)F)c2)cc1 [Compound 15, 4-[(3-Trifluoro)phenoxy]phenoxyethyl Thiocyanate] | 10.0 µM and 10.0 ± 2.5 µM
N#CSCCOc1cccc(Oc2ccc(Cl)cc2)c1 [Compound 48, 3-(4-Chlorophenoxy)phenoxyethyl Thiocyanate] | very low micromolar range
N#CSCCOc1cccnc1 [Compound 72, 3-Pyridyloxyethyl Thiocyanate] | devoid of antiparasitic activity
N#CSCCOc1ccc(Oc2ccc(C(F)(F)F)cc2)cc1 [Compound 16, 4-[(4-Trifluoro)phenoxy]phenoxyethyl Thiocyanate] | 9.2 µM and 9.2 ± 1.8 µM
N#CSCCOc1cccc(Oc2cccc(Cl)c2)c1 [Compound 47, 3-(3-Chlorophenoxy)phenoxyethyl Thiocyanate] | vanishing biological activity
N#CSCCOc1ccc(Br)cc1Br [Compound 68, 2,4-Dibromophenoxyethyl Thiocyanate] | inactive
N#CSCCOc1cccc(Oc2ccccn2)c1 [Compound 60, 3-(2-Pyridyloxy)phenoxyethyl Thiocyanate] | free of antiparasitic activity
N#CSCCOc1cccc(Oc2ccncc2)c1 [Compound 62, 3-(4-Pyridyloxy)phenoxyethyl Thiocyanate] | free of antiparasitic activity

Same assay, conditions: selectivity index, Vero cells versus T. cruzi

Compound | SI (T. cruzi)
N#CSCCOc1ccc(Oc2cccc(C(F)(F)F)c2)cc1 [Compound 15, 4-[(3-Trifluoro)phenoxy]phenoxyethyl Thiocyanate] | > 5.0
COc1cccc(Oc2cccc(OCCSC#N)c2)c1 [Compound 50, 3-(3-Methoxyphenoxy)-phenoxyethyl Thiocyanate] | 11.0
N#CSCCOc1cccc(Oc2ccc(Cl)cc2)c1 [Compound 48, 3-(4-Chlorophenoxy)phenoxyethyl Thiocyanate] | 15.7
N#CSCCOc1cccc(Oc2cccnc2)c1 [Compound 61, 3-(3-Pyridyn-3-yloxy)phenoxyethyl Thiocyanate] | 16.6
α-Naphtyloxyphenylethyl Thiocyanate [Compound 24] | > 7

Tested on: murine models of Chagas disease
Experiment: not given
Conditions: ketoconazole as positive control; cited from earlier work

Compound | effect on parasitemia
N#CSCCOc1ccc(Oc2ccccc2)cc1 [WC-9, 4-phenoxyphenoxyethyl thiocyanate, reference compound] | able to impair parasitemia
